Test results from patent publication US20250154138A1, “Small Molecule IL-17A Modulators” (BeiGene, Ltd., priority 2022, published 2025).
Read-outs that look alike come from different tables or passages of the source.

Key:
[1] = target: human IL-17A / human IL-17RA (Homo sapiens (Human), UniProt Q16552); assay: Human IL-17A biochemical assay (HTRF, blocking of IL-17A binding to IL-17RA); details: 0.4 nM IL-17A, 0.3 nM IL-17RA, max compound concentration 10 uM
In short: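 Recombinant human IL-17A (0.4 nM) was pre-incubated with compound (top 10 uM, 2.7-fold, 10 points) for 3 h at room temperature in 20 mM HEPES pH 7.5, 50 mM NaCl, 0.1% BSA, 0.2 mM DTT, 0.005% Tween 20. IL-17RA (0.3 nM) was then added for 1 h, followed by anti-6His Tb and anti-human IgG-XL665 detection for 1 h; IC50 from four-parameter fit.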

[2] = test system: IL-17-induced GROα secretion from HT-29 cells; assay: GROα release assay in human colorectal adenocarcinoma epithelial cell (HT-29, ELISA); assay type: cell-based; details: 10 ng/mL IL-17A, highest concentration 10 μM, read-out: Cellular assay HT29 cell/CXCL1 IC50
In short: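 HT-29 cells were exposed 48 h at 37°C to IL-17A (final 10 ng/mL) preincubated 15 min with compound (4-fold dilutions, top 10 μM). Secreted GROα was quantified by ELISA against a standard curve, and IC50 obtained by four-parameter fitting.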

Sequence of human IL-17A / human IL-17RA (Q16552 24-155): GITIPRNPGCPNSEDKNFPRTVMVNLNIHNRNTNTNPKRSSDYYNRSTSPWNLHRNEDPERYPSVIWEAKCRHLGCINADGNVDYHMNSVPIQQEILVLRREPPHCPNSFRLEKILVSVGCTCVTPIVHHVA

SMILES	IC50 [1] [µM]	IC50 ([2]; Homo sapiens, HT-29, 48 h) [µM]	IC50 ([2]; 48 hours) [µM]
CNC(=O)C1(N2C[C@@H](C(C)C)NC2=O)Cc2ccc(NC(=O)C(NC(=O)c3ccnn3C)C3CCC(C)(C)CC3)cc2C1 (stereo partly drawn) [Example 87, N-(1-(4,4-dimethylcyclohexyl)-2-((2-((R)-4-isopropyl-2-oxoimidazolidin-1-yl)-2-(methylcarbamoyl)-2,3-dihydro-1H-inden-5-yl)amino)-2-oxoethyl)-1-methyl-1H-pyrazole-5-carboxamide]	0.036	0.352	–
Cc1nonc1C(=O)NC(C(=O)Nc1ccc2c(c1)CC(N1C[C@@H](C(F)(F)F)NC1=O)C2)C1CCc2cc(Cl)ccc2C1 (stereo partly drawn) [Example 208, N-(1-(6-chloro-1,2,3,4-tetrahydronaphthalen-2-yl)-2-oxo-2-((2-((S)-2-oxo-4-(trifluoromethyl)imidazolidin-1-yl)-2,3-dihydro-1H-inden-5-yl)amino)ethyl)-4-methyl-1,2,5-oxadiazole-3-carboxamide]	0.718	2.17	–
Cc1nonc1C(=O)N[C@H](C(=O)Nc1ccc2c(c1)CC(C(=O)Nc1cccc(F)c1)(N1C[C@@H](C(C)C)NC1=O)C2)C1CCC(F)(F)CC1 (stereo partly drawn) [Example 243, N-((1S)-1-(4,4-difluorocyclohexyl)-2-((2-((3-fluorophenyl)carbamoyl)-2-((R)-4-isopropyl-2-oxoimidazolidin-1-yl)-2,3-dihydro-1H-inden-5-yl)amino)-2-oxoethyl)-4-methyl-1,2,5-oxadiazole-3-carboxamide]	0.29	0.317	–
CC(C)[C@@H]1CN(C2(C(=O)Nc3ccccc3)Cc3ccc(NC(=O)[C@@H](NC(=O)c4ccnn4C(C)C)C(C4CC4)C4CC4)cc3C2)C(=O)N1 (stereo partly drawn) [Example 235, N-((2S)-1,1-dicyclopropyl-3-((2-((R)-4-isopropyl-2-oxoimidazolidin-1-yl)-2-(phenylcarbamoyl)-2,3-dihydro-1H-inden-5-yl)amino)-3-oxopropan-2-yl)-1-isopropyl-1H-pyrazole-5-carboxamide]	0.229	0.214	–
Cc1nonc1C(=O)N[C@H](C(=O)Nc1ccc2c(c1)CC(c1nc3cccc(F)c3[nH]1)(N1CC3(CC3)CNC1=O)C2)C1CCC(F)(F)CC1 (stereo partly drawn) [Example 187, N-((1S)-1-(4,4-difluorocyclohexyl)-2-((2-(7-fluoro-1H-benzo[d]imidazol-2-yl)-2-(6-oxo-5,7-diazaspiro[2.5]octan-5-yl)-2,3-dihydro-1H-inden-5-yl)amino)-2-oxoethyl)-4-methyl-1,2,5-oxadiazole-3-carboxamide]	0.249	0.246	–
CNC(=O)C1(N2CC3(CC3)CNC2=O)Cc2ccc(NC(=O)[C@@H](NC(=O)c3ccnn3C)C3CCC(F)(F)CC3)cc2C1 (stereo partly drawn) [Example 142, N-((1S)-1-(4,4-difluorocyclohexyl)-2-((2-(methylcarbamoyl)-2-(6-oxo-5,7-diazaspiro[2.5]octan-5-yl)-2,3-dihydro-1H-inden-5-yl)amino)-2-oxoethyl)-1-methyl-1H-pyrazole-5-carboxamide]	0.107	0.197	–
Cc1nonc1C(=O)N[C@H](C(=O)Nc1ccc2c(c1)CC(C(=O)Nc1cncs1)(N1C[C@@H](C(C)C)NC1=O)C2)C(C1CC1)C1CC1 (stereo partly drawn) [Example 285, N-((2S)-1,1-dicyclopropyl-3-((2-((R)-4-isopropyl-2-oxoimidazolidin-1-yl)-2-(thiazol-5-ylcarbamoyl)-2,3-dihydro-1H-inden-5-yl)amino)-3-oxopropan-2-yl)-4-methyl-1,2,5-oxadiazole-3-carboxamide]	0.0714	0.0902	–
CNC(=O)C1(N2C[C@@H](C(C)C)NC2=O)Cc2ccc(NC(=O)[C@@H](NC(=O)c3cccc(Oc4c(C)n[nH]c4C)c3)C3CCCCC3)cc2C1 (stereo partly drawn) [Example 149, 5-((S)-2-cyclohexyl-2-(3-((3,5-dimethyl-1H-pyrazol-4-yl)oxy)benzamido)acetamido)-2-((R)-4-isopropyl-2-oxoimidazolidin-1-yl)-N-methyl-2,3-dihydro-1H-indene-2-carboxamide]	0.092	0.0443	–
CC[C@@H]1CN(C2(C(=O)NC)Cc3ccc(NC(=O)[C@@H](NC(=O)c4ccnn4C)C(C4CC4)C4CC4)cc3C2)C(=O)N1 (stereo partly drawn) [Example 166, N-((2S)-1,1-dicyclopropyl-3-((2-((R)-4-ethyl-2-oxoimidazolidin-1-yl)-2-(methylcarbamoyl)-2,3-dihydro-1H-inden-5-yl)amino)-3-oxopropan-2-yl)-1-methyl-1H-pyrazole-5-carboxamide]	0.169	0.135	–
CC(C)n1nccc1C(=O)N[C@H](C(=O)Nc1ccc2c(c1)OC(CN1C[C@@H](C(F)(F)F)NC1=O)C2)C(C1CC1)C1CC1 (stereo partly drawn) [Example 256, N-((2S)-1,1-dicyclopropyl-3-oxo-3-((2-(((S)-2-oxo-4-(trifluoromethyl)imidazolidin-1-yl)methyl)-2,3-dihydrobenzofuran-6-yl)amino)propan-2-yl)-1-isopropyl-1H-pyrazole-5-carboxamide]	0.0502	0.082	–
CC1CN(Cc2cc3cc(NC(=O)[C@@H](NC(=O)c4ccnn4C)C4CCCCC4)ccc3o2)C(=O)N1 (stereo partly drawn) [Example 11, N-((1S)-1-cyclohexyl-2-((2-((4-methyl-2-oxoimidazolidin-1-yl)methyl)benzofuran-5-yl)amino)-2-oxoethyl)-1-methyl-1H-pyrazole-5-carboxamide]	1.7	6.52	–
Cc1nonc1C(=O)N[C@H](C(=O)Nc1ccc2c(c1)CC(C(O)C(F)(F)F)(N1CC(C(F)(F)F)NC1=O)C2)C(C1CC1)C1CC1 (stereo partly drawn) [Example 270, N-((2S)-1,1-dicyclopropyl-3-oxo-3-((2-(2-oxo-4-(trifluoromethyl)imidazolidin-1-yl)-2-(2,2,2-trifluoro-1-hydroxyethyl)-2,3-dihydro-1H-inden-5-yl)amino)propan-2-yl)-4-methyl-1,2,5-oxadiazole-3-carboxamide]	0.2	0.35	–
Cc1nonc1C(=O)N[C@H](C(=O)Nc1ccc2c(c1)CC(C(=O)NC(C1CC1)C1CC1)(N1C[C@@H](C(C)C)NC1=O)C2)C(C1CC1)C1CC1 (stereo partly drawn) [Example 281, N-((2S)-1,1-dicyclopropyl-3-((2-((dicyclopropylmethyl)carbamoyl)-2-((R)-4-isopropyl-2-oxoimidazolidin-1-yl)-2,3-dihydro-1H-inden-5-yl)amino)-3-oxopropan-2-yl)-4-methyl-1,2,5-oxadiazole-3-carboxamide]	0.0165	0.0674	–
CC(C1Cc2ccc(NC(=O)[C@@H](NC(=O)c3ccnn3C(C)C)C(C3CC3)C3CC3)cc2O1)N1C[C@@H](C(F)(F)F)NC1=O (stereo partly drawn) [Example 277, N-((2S)-1,1-dicyclopropyl-3-oxo-3-((2-(1-((S)-2-oxo-4-(trifluoromethyl)imidazolidin-1-yl)ethyl)-2,3-dihydrobenzofuran-6-yl)amino)propan-2-yl)-1-isopropyl-1H-pyrazole-5-carboxamide]	0.56	1.28	–
CNC(=O)C1(N2CC3(CC3)CNC2=O)Cc2ccc(NC(=O)C(NC(=O)c3ccnn3C)C3CCC(C(C)C)CC3)cc2C1 (stereo not shown) [Example 152, N-(1-(4-isopropylcyclohexyl)-2-((2-(methylcarbamoyl)-2-(6-oxo-5,7-diazaspiro[2.5]octan-5-yl)-2,3-dihydro-1H-inden-5-yl)amino)-2-oxoethyl)-1-methyl-1H-pyrazole-5-carboxamide]	0.01	0.031	–
Cc1nonc1C(=O)N[C@H](C(=O)Nc1ccc2c(c1)CC(N1CC(C(F)(F)F)NC1=O)(C(C)(C)O)C2)C(C1CC1)C1CC1 (stereo partly drawn) [Example 279, N-((2S)-1,1-dicyclopropyl-3-((2-(2-hydroxypropan-2-yl)-2-(2-oxo-4-(trifluoromethyl)imidazolidin-1-yl)-2,3-dihydro-1H-inden-5-yl)amino)-3-oxopropan-2-yl)-4-methyl-1,2,5-oxadiazole-3-carboxamide]	0.0648	0.0691	–
Cc1nonc1C(=O)N[C@H](C(=O)Nc1ccc2c(c1)CC(C1C[C@@H](C(C)C)NC1=O)C2)C(C1CC1)C1CC1 (stereo partly drawn) [Example 211, N-((2S)-1,1-dicyclopropyl-3-((2-((5S)-5-isopropyl-2-oxopyrrolidin-3-yl)-2,3-dihydro-1H-inden-5-yl)amino)-3-oxopropan-2-yl)-4-methyl-1,2,5-oxadiazole-3-carboxamide]	0.465	–	3.69
CNC(=O)C1(N2C[C@@H](Cc3ccccn3)NC2=O)Cc2ccc(NC(=O)[C@@H](NC(=O)c3ccnn3C)C3CCCCC3)cc2C1 (stereo partly drawn) [Example 43, N-((1S)-1-cyclohexyl-2-((2-(methylcarbamoyl)-2-((R)-2-oxo-4-(pyridin-2-ylmethyl)imidazolidin-1-yl)-2,3-dihydro-1H-inden-5-yl)amino)-2-oxoethyl)-1-methyl-1H-pyrazole-5-carboxamide]	1.46	2.38	–
COCC1(N2C[C@@H](C(C)C)NC2=O)Cc2ccc(NC(=O)[C@@H](NC(=O)c3nonc3C)C(C3CC3)C3CC3)cc2C1 (stereo partly drawn) [Example 244, N-((2S)-1,1-dicyclopropyl-3-((2-((R)-4-isopropyl-2-oxoimidazolidin-1-yl)-2-(methoxymethyl)-2,3-dihydro-1H-inden-5-yl)amino)-3-oxopropan-2-yl)-4-methyl-1,2,5-oxadiazole-3-carboxamide]	2.13	1.57	–
Cn1nccc1C(=O)N[C@H](C(=O)Nc1ccc2c(c1)CC(N1CC3(CC3)CNC1=O)C2)C1CCCCC1 (stereo partly drawn) [Example 199, N-((1S)-1-cyclohexyl-2-oxo-2-((2-(6-oxo-5,7-diazaspiro[2.5]octan-5-yl)-2,3-dihydro-1H-inden-5-yl)amino)ethyl)-1-methyl-1H-pyrazole-5-carboxamide]	0.57	2.77	–
